Measured values taken from ChEMBL document CHEMBL5154908, “Design, Synthesis, and Biological Characterization of Inhaled p38α/β MAPK Inhibitors for the Treatment of Lung Inflammatory Diseases” (J Med Chem, 2022).
Values after ≈ are worked out from the molar mass of the structure shown.

Legend:
Rattus norvegicus [1] = assay: Antiinflammatory activity against LPS-induced Sprague-Dawley rat inflammatory model assessed as inhibition of neutrophil cells release in BALF at 0.1 mg/kg, IT preincubated for 2 hrs followed by LPS-stimulation and measured after 4 hrs relative to control; type: functional; set-up: scale not given: the % may be the effect or the level left; conditions: time 6 hrs
[2] = Inhibition of LPS-stimulated TNFalpha release in human PBMC cells preincubated for 1 hr followed by LPS stimulation and measured after 18 hrs; type: functional, cell-based
[3] = Cmax in Sprague-Dawley rat plasma at 0.03 mg/kg, IT measured after 0.8 hrs by LC/MS/MS analysis; type: ADME, organism-based; set-up: dose 0.03 mg/kg, time 0.8 hrs, route it
[4] = target: Mitogen-activated protein kinase 11 (Homo sapiens, UniProt Q15759); assay: Inhibition of recombinant human full length His-tagged p38beta expressed in baculovirus expression system preincubated for 2 hrs followed by ATP addition and measured after 1 hr by Alpha screen assay
Rattus norvegicus [5] = assay: Antiinflammatory activity against LPS-induced Sprague-Dawley rat inflammatory model assessed as inhibition of neutrophil cells release in BALF at 0.3 mg/kg, IT measured after 12 hrs relative to control; type: functional
[6] = Drug uptake in Sprague-Dawley rat lung homogenate at 0.03 mg/kg, IT measured after 24 hrs by LC/MS/MS analysis; type: ADME, organism-based; conditions: in vivo, other
[7] = target: T1, Mitogen-activated protein kinase 12 (Homo sapiens, UniProt P53778); assay: Inhibition of recombinant human full length His-tagged p38gamma expressed in baculovirus expression system preincubated for 2 hrs followed by ATP addition and measured after 1 hr by Alpha screen assay
T1 sequence (P53778 whole entry): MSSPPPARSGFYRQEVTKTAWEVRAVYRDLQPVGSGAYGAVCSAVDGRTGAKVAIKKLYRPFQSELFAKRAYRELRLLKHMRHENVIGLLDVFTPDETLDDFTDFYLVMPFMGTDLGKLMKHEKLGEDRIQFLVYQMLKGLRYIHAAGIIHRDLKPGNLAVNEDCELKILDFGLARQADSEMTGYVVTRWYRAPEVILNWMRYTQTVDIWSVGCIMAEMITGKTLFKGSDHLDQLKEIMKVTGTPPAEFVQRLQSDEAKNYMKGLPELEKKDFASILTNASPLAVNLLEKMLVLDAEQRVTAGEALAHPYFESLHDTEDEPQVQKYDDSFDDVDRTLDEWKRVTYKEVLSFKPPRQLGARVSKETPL

[8] = Protein binding in rat lung homogenate at 10 uM incubated for 4 hrs by LC/MS/MS analysis; type: ADME, tissue-based; conditions: read-out: PB (converted)
[9] = Protein binding in rat plasma at 10 uM incubated for 4 hrs by LC/MS/MS analysis; type: ADME, cell-free; conditions: read-out: PPB (converted)
[10] = Permeability across apical to basolateral side in human Caco-2 cells at 10 uM measured after 60 mins by LC/MS/MS analysis; type: ADME, cell-based; conditions: read-out: permeability
[11] = Efflux ratio of permeability in human Caco-2 cells at 10 uM measured after 60 mins by LC-MS/MS analysis; type: ADME, cell-based
[12] = Drug concentration in Sprague-Dawley rat lung homogenate at 0.3 mg/kg, IT measured after 24 hrs by LC/MS/MS analysis; type: ADME, organism-based; conditions: read-out: Ct
[13] = target: T2, Mitogen-activated protein kinase 13 (Homo sapiens, UniProt O15264); assay: Inhibition of recombinant human full length His-tagged p38delta expressed in baculovirus expression system preincubated for 2 hrs followed by ATP addition and measured after 1 hr by Alpha screen assay
T2 sequence (O15264 whole entry): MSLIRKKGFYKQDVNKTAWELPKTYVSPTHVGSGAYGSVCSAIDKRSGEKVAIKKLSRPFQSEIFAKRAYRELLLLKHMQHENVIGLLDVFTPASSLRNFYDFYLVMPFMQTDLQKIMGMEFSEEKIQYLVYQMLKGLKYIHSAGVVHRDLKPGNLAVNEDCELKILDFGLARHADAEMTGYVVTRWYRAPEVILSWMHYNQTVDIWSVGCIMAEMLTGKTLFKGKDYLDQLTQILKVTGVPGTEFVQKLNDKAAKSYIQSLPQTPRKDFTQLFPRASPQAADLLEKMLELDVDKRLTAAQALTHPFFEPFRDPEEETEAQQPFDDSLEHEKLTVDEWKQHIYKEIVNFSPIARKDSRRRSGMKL

[14] = target: T3, Mitogen-activated protein kinase 14 (Homo sapiens, UniProt Q16539); assay: Displacement of SKF-86002 from human inactivated p38alpha assessed as dissociation half life incubated for 2 hrs by fluorescence based analysis
[15] = Cmax in Sprague-Dawley rat lung homogenate at 0.03 mg/kg, IT measured after 0.8 hrs by LC/MS/MS analysis; type: ADME, organism-based; set-up: time 0.8 hrs, dose 0.03 mg/kg, route it
[16] = Selectivity index, ratio of drug concentration in Sprague-Dawley rat lung homogenate to IC50 for human p38alpha; type: tissue-based; conditions: tissue homogenate
[17] = Solubility of the compound at >=1 mg/ml measured after 30 mins by HPLC analysis; type: physicochemical
[18] = target: T3, Mitogen-activated protein kinase 14; assay: Inhibition of human recombinant full length GST-tagged p38alpha expressed in Escherichia coli preincubated for 2 hrs followed by ATP addition and measured after 1 hr by Alpha screen assay
[19] = Metabolic stability in rat liver microsomes assessed as half life at 1 uM preincubated for 10 mins followed by NADPH addition and measured after 30 mins by LC/MS/MS analysis; type: ADME, Microsome; conditions: time 40 min
[20] = Drug uptake in Sprague-Dawley rat lung homogenate at 0.03 mg/kg, IT measured after 7 hrs by LC/MS/MS analysis; type: ADME, organism-based; conditions: in vivo, other

Mitogen-activated protein kinase 11, sequence (Q15759 whole entry): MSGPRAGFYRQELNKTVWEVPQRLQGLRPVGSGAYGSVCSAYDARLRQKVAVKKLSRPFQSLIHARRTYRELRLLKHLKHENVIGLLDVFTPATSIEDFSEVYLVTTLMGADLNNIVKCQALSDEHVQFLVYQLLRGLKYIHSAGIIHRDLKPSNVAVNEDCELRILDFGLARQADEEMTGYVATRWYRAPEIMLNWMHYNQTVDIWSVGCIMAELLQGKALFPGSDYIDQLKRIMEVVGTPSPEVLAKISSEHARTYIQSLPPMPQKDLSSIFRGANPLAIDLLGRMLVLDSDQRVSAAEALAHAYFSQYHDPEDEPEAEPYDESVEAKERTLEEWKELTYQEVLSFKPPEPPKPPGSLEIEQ
T3 sequence (Q16539 whole entry): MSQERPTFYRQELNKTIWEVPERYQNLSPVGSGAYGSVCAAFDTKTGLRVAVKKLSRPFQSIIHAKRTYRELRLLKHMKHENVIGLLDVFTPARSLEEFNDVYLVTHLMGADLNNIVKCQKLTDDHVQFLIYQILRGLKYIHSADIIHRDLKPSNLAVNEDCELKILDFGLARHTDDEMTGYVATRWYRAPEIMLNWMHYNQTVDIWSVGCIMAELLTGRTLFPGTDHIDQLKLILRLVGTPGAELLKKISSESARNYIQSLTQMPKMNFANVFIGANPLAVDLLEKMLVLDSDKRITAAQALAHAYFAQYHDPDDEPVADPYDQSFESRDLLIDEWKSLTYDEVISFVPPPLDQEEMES

Compound: CC(C)(C)c1cc(NC(=O)NCc2ccccc2Sc2ccc3nnc(-c4ccccc4SCCO)n3c2)n(-c2ccc(O)c(Cl)c2)n1 [PF-03715455]
- Activity (Rattus norvegicus [1]): 14%
- IC50 [2]: 8 nM

Compound: Cc1ccc(-n2nc(C(C)(C)C)cc2NC(=O)N[C@H]2CC[C@@H](Oc3ccc4nnc(N5CCC(CO)CC5)n4c3)c3ccccc32)cc1
- Cmax [3]: 0.05 µM
- IC50 [4]: 0.8 nM
- inhibition in vivo at 0.3 mg/kg (Rattus norvegicus [5]): 19%
- Drug uptake [6]: 23%
- IC50 [7]: 10 nM
- fraction unbound at 4 h, 10 µM [8]: 0.009
- fraction unbound at 4 h, 10 µM [9]: 0.001
- Papp A→B at 1 h, 10 µM [10]: 33 nm/s
- efflux ratio at 1 h, 10 µM [11]: > 2.5
- concentration at 24 h [12]: 10.3 µM
- IC50 [13]: 931 nM
- T1/2 [14]: > 16 h
- Cmax [15]: 5.07 µM
- Ratio [16]: > 300
- IC50 [2]: 1 nM
- solubility at 0.5 h [17]: 0.01 mg/mL (≈ 15.4 µM)
- IC50 [18]: 0.3 nM
- half-life at 1 µM [19]: 0.25 h
- Drug uptake [20]: 99%

Compound: Cc1ccc(-n2nc(C(C)(C)C)cc2NC(=O)N[C@H]2CC[C@H](Oc3ccc4nnc(C(C)C)n4c3)CC2)cc1
- T1/2 [14]: 0.09 h
- IC50 [2]: 36 nM
- IC50 [18]: 6.1 nM

Compound: C[C@H]1CCCCN1c1nnc2ccc(O[C@@H]3CC[C@H](NC(=O)Nc4cc(C(C)(C)C)nn4-c4cccc(OCCN5CCN(C)CC5)c4)c4ccccc43)cn12
- T1/2 [14]: 5.1 h
- IC50 [2]: 2.1 nM
- IC50 [18]: 0.3 nM

Compound: CN(C)CCOc1cccc(-n2nc(C(C)(C)C)cc2NC(=O)N[C@H]2CC[C@@H](Oc3ccc4nnc(N5CCCCC5)n4c3)c3ccccc32)c1
- T1/2 [14]: 3.6 h
- IC50 [2]: 1.3 nM
- IC50 [18]: 0.6 nM

Compound: Cc1ccc(-n2nc(C(C)(C)C)cc2NC(=O)N[C@H]2CC[C@@H](Oc3ccc4nnc(N5CCCCC5)n4c3)c3ccccc32)cc1
- Cmax [3]: 0.06 µM
- IC50 [4]: 0.4 nM
- inhibition in vivo at 0.3 mg/kg (Rattus norvegicus [5]): 20%
- Drug uptake [6]: 19%
- IC50 [7]: 16 nM
- fraction unbound at 4 h, 10 µM [8]: 0.001
- fraction unbound at 4 h, 10 µM [9]: < 0.001
- Papp A→B at 1 h, 10 µM [10]: 25 nm/s
- efflux ratio at 1 h, 10 µM [11]: > 2.5
- concentration at 24 h [12]: 12.1 µM
- IC50 [13]: > 10000 nM
- T1/2 [14]: > 16 h
- Cmax [15]: 3.18 µM
- Ratio [16]: 40
- IC50 [2]: 0.3 nM
- solubility at 0.5 h [17]: 0.03 mg/mL (≈ 48.5 µM)
- IC50 [18]: 0.3 nM
- half-life at 1 µM [19]: < 0.167 h
- Drug uptake [20]: 21%

Compound: Cc1ccc(-n2nc(C(C)(C)C)cc2NC(=O)N[C@H]2CC[C@@H](Oc3ccc4nnc(N5CCN(C)CC5)n4c3)c3ccccc32)cc1
- T1/2 [14]: 9 h
- IC50 [2]: 2.5 nM
- IC50 [18]: 1 nM

Compound: CC(C)c1nnc2ccc(O[C@@H]3CC[C@H](NC(=O)Nc4cc(C(C)(C)C)nn4-c4ccc(Cl)c(O)c4)c4ccccc43)cn12
- T1/2 [14]: 0.89 h
- IC50 [2]: 0.7 nM
- IC50 [18]: 0.05 nM

Compound: CC(C)c1nnc2ccc(O[C@@H]3CC[C@H](NC(=O)Nc4cc(C(C)(C)C)nn4C)c4ccccc43)cn12
- T1/2 [14]: 0.07 h
- IC50 [2]: 3.9 nM
- IC50 [18]: 0.3 nM

Compound: C[C@H]1CCCCN1c1nnc2ccc(O[C@@H]3CC[C@H](NC(=O)Nc4cc(C(C)(C)C)nn4-c4cccc(OCCN(C)C)c4)c4ccccc43)cn12
- Cmax [3]: 0.01 µM
- IC50 [4]: 1.3 nM
- inhibition in vivo at 0.3 mg/kg (Rattus norvegicus [5]): 49%
- Drug uptake [6]: 1.6%
- IC50 [7]: 2860 nM
- fraction unbound at 4 h, 10 µM [8]: 0.001
- fraction unbound at 4 h, 10 µM [9]: 0.003
- Papp A→B at 1 h, 10 µM [10]: 14 nm/s
- efflux ratio at 1 h, 10 µM [11]: > 2.5
- concentration at 24 h [12]: 0.97 µM
- IC50 [13]: > 10000 nM
- T1/2 [14]: > 16 h
- Cmax [15]: 2.7 µM
- Ratio [16]: 4.9
- IC50 [2]: 1 nM
- solubility at 0.5 h [17]: 0.1 mg/mL (≈ 142 µM)
- IC50 [18]: 0.2 nM
- half-life at 1 µM [19]: 0.333 h
- Drug uptake [20]: 8.4%

Compound: CC(C)c1nnc2ccc(O[C@@H]3CC[C@H](NC(=O)Nc4cc(C(C)(C)C)nn4-c4ccccc4)c4ccccc43)cn12
- T1/2 [14]: 1.74 h
- IC50 [2]: 0.5 nM
- IC50 [18]: 0.06 nM
